Data on one molecule can be found in publication PMC8401933 (Molecules, 2021).

Molecules are shown by their SMILES.

This assay concerns the target T1, CDK7 (Homo sapiens, UniProt P50613).
T1 construct: purchased Eurofins DiscoverX KINOMEscan
Nature of the assay: KINOMEscan binding. The following applies: read-out: Percent Control.

T1 sequence (P50613 whole entry): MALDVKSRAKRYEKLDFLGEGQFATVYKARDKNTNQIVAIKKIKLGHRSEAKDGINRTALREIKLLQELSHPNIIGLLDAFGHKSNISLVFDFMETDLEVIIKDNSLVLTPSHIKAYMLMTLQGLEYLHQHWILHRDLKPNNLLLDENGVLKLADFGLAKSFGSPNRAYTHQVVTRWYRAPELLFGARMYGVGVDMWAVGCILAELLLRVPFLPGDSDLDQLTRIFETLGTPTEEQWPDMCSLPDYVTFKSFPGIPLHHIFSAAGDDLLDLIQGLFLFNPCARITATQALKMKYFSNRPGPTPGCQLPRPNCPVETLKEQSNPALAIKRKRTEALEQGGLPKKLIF

Regarding `CC(C)NC(=O)COc1cccc(-c2nc(Nc3ccc4[nH]ncc4c3)c3ccccc3n2)c1` [KD025, 2-(3-(4-((1H-indazol-5-yl)amino)quinazolin-2-yl)phenoxy)-N-isopropylacetamide], the remaining binding at 10 µM was found to be 76%.
